The values below come from PubChem BioAssay AID328 (DTP/NCI, 2004).

Values joined by “and” are separate entries in the source; they are usually repeats but may differ in a detail not shown here. Identical values can stand only once. Toxic doses and inconclusive results are not listed.

The test system of this assay is BDF1 mice, P388 leukemia ip, median survival T/C. The experiment in a line: NCI In Vivo Anticancer Drug Screen. Data for tumor model P388 Leukemia (intraperitoneal) in B6D2F1 (BDF1) mice. Particulars: endpoint: median survival time, higher = longer survival. The essentials: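 Antitumour effect was judged in vivo: survival in drug-treated mice, normalised to that of vehicle-dosed controls, gives the reported T/C.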

The mark [1] stands for this setting: dose: 100.0 mg/kg/injection, schedule: Q01DX009 (ip), vehicle: Klucel (hydroxypropylcellulose) (HPC).
[2] abbreviates: dose: 100.0 mg/kg/injection, schedule: Q04DX003 (ip), vehicle: Klucel (hydroxypropylcellulose) (HPC).
Setting [3] is: dose: 200.0 mg/kg/injection, schedule: Q01DX009 (ip), vehicle: Klucel (hydroxypropylcellulose) (HPC).
Where [4] appears, read: dose: 200.0 mg/kg/injection, schedule: Q04DX003 (ip), vehicle: Klucel (hydroxypropylcellulose) (HPC).
Setting [5] is: dose: 400.0 mg/kg/injection, schedule: Q01DX009 (ip), vehicle: Klucel (hydroxypropylcellulose) (HPC).
Setting [6] is: dose: 400.0 mg/kg/injection, schedule: Q04DX003 (ip), vehicle: Klucel (hydroxypropylcellulose) (HPC).
The mark [7] stands for this setting: dose: 50.0 mg/kg/injection, schedule: Q01DX009 (ip), vehicle: saline with Tween-80.
Where [8] appears, read: dose: 100.0 mg/kg/injection, schedule: Q04DX003 (ip), vehicle: saline with Tween-80.
Where [9] appears, read: dose: 6.25 mg/kg/injection, schedule: Q01DX009 (ip), vehicle: saline.
[10] abbreviates: dose: 12.5 mg/kg/injection, schedule: Q01DX009 (ip), vehicle: saline.
[11] abbreviates: dose: 25.0 mg/kg/injection, schedule: Q01DX009 (ip), vehicle: saline.
[12] abbreviates: dose: 50.0 mg/kg/injection, schedule: Q01DX009 (ip), vehicle: saline.
Where [13] appears, read: dose: 100.0 mg/kg/injection, schedule: Q01DX009 (ip), vehicle: saline.
Setting [14] is: dose: 100.0 mg/kg/injection, schedule: Q01DX009 (ip), vehicle: saline with Tween-80.
The mark [15] stands for this setting: dose: 50.0 mg/kg/injection, schedule: Q04DX003 (ip), vehicle: saline with Tween-80.
[16] abbreviates: dose: 200.0 mg/kg/injection, schedule: Q01DX009 (ip), vehicle: saline with Tween-80.

As for `O=C1/C(=C/c2ccco2)CC2CCCCC12` (stereo unspecified), the T/C reads like this: (dose: 50.0 mg/kg/injection, schedule: Q01DX009 (ip), vehicle: Klucel (hydroxypropylcellulose) (HPC)) 104 % of control; (dose: 75.0 mg/kg/injection, schedule: Q01DX001 (ip), vehicle: other) 100 % of control; (dose: 75.0 mg/kg/injection, schedule: Q01DX009 (ip), vehicle: Klucel (hydroxypropylcellulose) (HPC)) 113 % of control; (dose: 150.0 mg/kg/injection, schedule: Q01DX001 (ip), vehicle: other) 104 % of control; (dose: 150.0 mg/kg/injection, schedule: Q01DX009 (ip), vehicle: Klucel (hydroxypropylcellulose) (HPC)) 100 % of control.

In the case of `CCCCSCC(N)C(=O)O` (stereo unspecified), the T/C under setting [1] was 116 % of control; the T/C under setting [2] was 104 % of control; the T/C under setting [3] was 121 % of control; the T/C under setting [4] was 104 % of control; the T/C under setting [5] was 111 % of control; the T/C under setting [6] is 95 % of control.

On to `CC1CN1C(=O)c1cc(C(=O)N2CC2C)cc(C(=O)N2CC2C)c1` (stereo unspecified), for which the T/C is, setting by setting: (dose: 8.25 mg/kg/injection, schedule: Q04DX003 (ip), vehicle: saline with Tween-80) 113 % of control; (dose: 16.5 mg/kg/injection, schedule: Q04DX003 (ip), vehicle: saline with Tween-80) 117 % of control; (dose: 37.5 mg/kg/injection, schedule: Q01DX009 (ip), vehicle: saline with Tween-80) 166 % of control; under setting [7], 163 % of control; (dose: 66.0 mg/kg/injection, schedule: Q04DX003 (ip), vehicle: saline) 86 % of control; (dose: 150.0 mg/kg/injection, schedule: Q04DX003 (ip), vehicle: saline) 86 % of control.

In the case of `CCOC(=O)C(C#N)C1CCCCC1` (stereo unspecified), the T/C is 100 % of control under setting [1]; 104 % of control under setting [2]; 104 % of control under setting [3]; 104 % of control under setting [4]; 109 % of control under setting [5]; 90 % of control under setting [6].

On to `CCOC(=O)CCC(C)(C#N)c1ccccc1` (stereo unspecified), for which the T/C by setting is: under setting [7], 100 % of control; under setting [8], 95 % of control; (dose: 200.0 mg/kg/injection, schedule: Q04DX003 (ip), vehicle: saline with Tween-80) 91 % of control; (dose: 400.0 mg/kg/injection, schedule: Q04DX003 (ip), vehicle: saline with Tween-80) 100 % of control.

For `CN(C)CCCOC(=O)CC(C)(C)C`, the T/C (dose: 50.0 mg/kg/injection, schedule: Q01DX005 (ip), vehicle: water) is 91 % of control and the T/C (dose: 100.0 mg/kg/injection, schedule: Q01DX005 (ip), vehicle: water) is 94 % of control.

Consider `COc1ccc(-c2c(C)c(C(=O)O)nc(-c3ccc4c(O)c(OC)c5c(c4n3)=NC(C)(C)N=5)c2N)c(O)c1OC`, for which the T/C is 90 % of control (dose: 1.0 mg/kg/injection, schedule: Q01DX010 (ip), vehicle: other); 118 % of control (dose: 2.0 mg/kg/injection, schedule: Q01DX010 (ip), vehicle: other); 118 % of control (dose: 4.0 mg/kg/injection, schedule: Q01DX010 (ip), vehicle: other); 100 % of control (dose: 5.0 mg/kg/injection, schedule: Q01DX010 (ip), vehicle: water); 95 % of control (dose: 10.0 mg/kg/injection, schedule: Q01DX010 (ip), vehicle: water).

For `CCSc1c(S)cnn(C)c1=O`, the T/C (dose: 50.0 mg/kg/injection, schedule: Q01DX005 (ip), vehicle: saline with Tween-80) is 90 % of control; the T/C (dose: 100.0 mg/kg/injection, schedule: Q01DX005 (ip), vehicle: saline with Tween-80) was 90 % of control; the T/C (dose: 200.0 mg/kg/injection, schedule: Q01DX005 (ip), vehicle: saline with Tween-80) was 97 % of control.

On to `Cc1nc(CN(C)C)c2cnccn12`, for which the T/C was 95 % of control under setting [9], 104 % of control under setting [10] and 100 % of control under setting [11].

In the case of `CC(CCCSC(=N)N)SC(=N)N` (stereo unspecified), the T/C reads like this: under setting [10], 103 % of control; under setting [11], 96 % of control and 105 % of control; under setting [12], 97 % of control and 122 % of control; under setting [13], 102 % of control and 103 % of control.

`Clc1nc2n[nH]nc2nc1Cl`: the T/C reads like this: (dose: 3.13 mg/kg/injection, schedule: Q01DX009 (ip), vehicle: saline) 100 % of control; under setting [9], 95 % of control.

With `N#Cc1cnc2nc(N)nc(N)c2c1`, the T/C is, setting by setting: under setting [12], 104 % of control; under setting [13], 107 % of control; (dose: 100.0 mg/kg/injection, schedule: Q04DX003 (ip), vehicle: saline) 108 % of control; (dose: 200.0 mg/kg/injection, schedule: Q01DX009 (ip), vehicle: saline) 117 % of control; (dose: 200.0 mg/kg/injection, schedule: Q04DX003 (ip), vehicle: saline) 116 % of control.

For the compound `S=c1nn[nH]n1-c1ccccc1.[Zn+2]`, the T/C under setting [7] was 109 % of control and the T/C under setting [14] was 118 % of control.

For `CS(=O)(=O)OCCCCCCCCCOS(C)(=O)=O`, the T/C is 104 % of control (dose: 33.0 mg/kg/injection, schedule: Q04DX003 (ip), vehicle: saline with Tween-80) and 113 % of control under setting [15].

Regarding `O=C(Nc1ccc(Cl)cc1)P(=O)(O)c1ccccc1`, the T/C is, setting by setting: under setting [9], 98 % of control; under setting [10], 104 % of control; under setting [11], 98 % of control; under setting [12], 99 % of control; under setting [13], 100 % of control and 102 % of control.

In the case of `CC(=O)OC1(C)N=NC2(CCCCC2)O1` (stereo unspecified), the T/C under setting [7] is 102 % of control, the T/C under setting [14] is 98 % of control and the T/C under setting [16] is 112 % of control.

Take `O=C1/C(=C\c2ccc(Cl)cc2Cl)SC(=S)N1Cc1ccco1`: the T/C was 97 % of control under setting [7], 91 % of control under setting [14] and 88 % of control under setting [16].

On to `COC(=O)N1c2ccccc2C=CC1C#N` (stereo unspecified), for which the T/C reads like this: (dose: 12.5 mg/kg/injection, schedule: Q01DX009 (ip), vehicle: saline with Tween-80) 100 % of control; (dose: 25.0 mg/kg/injection, schedule: Q01DX009 (ip), vehicle: saline with Tween-80) 90 % of control and 100 % of control; (dose: 25.0 mg/kg/injection, schedule: Q04DX003 (ip), vehicle: saline with Tween-80) 100 % of control; under setting [7], 90 % of control; under setting [15], 109 % of control; under setting [14], 100 % of control. Further, under setting [8], the T/C is 100 % of control.

As to `CC(=O)OC1CCC2(C)C(CCC3(C)C2CCC2C4C5OC(=O)C4(CCC5(C)C)CCC23C)C1(C)C` (stereo unspecified), the T/C is 105 % of control (dose: 10.0 mg/kg/injection, schedule: Q01DX009 (ip), vehicle: Klucel (hydroxypropylcellulose) (HPC)); 114 % of control (dose: 20.0 mg/kg/injection, schedule: Q01DX009 (ip), vehicle: Klucel (hydroxypropylcellulose) (HPC)); 110 % of control (dose: 40.0 mg/kg/injection, schedule: Q01DX009 (ip), vehicle: Klucel (hydroxypropylcellulose) (HPC)).

`O=[N+]([O-])c1ccc(/C=C/c2ncc[nH]2)o1`: the T/C is 100 % of control (dose: 50.0 mg/kg/injection, schedule: Q04DX003 (ip), vehicle: Klucel (hydroxypropylcellulose) (HPC)); 100 % of control under setting [2]; 100 % of control under setting [4].

As for `CCN1/C(=C/C=C/c2oc3ccccc3[n+]2CC)Oc2ccccc21`, the T/C is 118 % of control (dose: 0.13 mg/kg/injection, schedule: Q01DX010 (ip), vehicle: saline); 108 % of control (dose: 0.15 mg/kg/injection, schedule: Q01DX009 (ip), vehicle: saline); 118 % of control (dose: 0.25 mg/kg/injection, schedule: Q01DX010 (ip), vehicle: saline); 165 % of control (dose: 0.6 mg/kg/injection, schedule: Q01DX009 (ip), vehicle: Klucel (hydroxypropylcellulose) (HPC)); 108 % of control (dose: 37.5 micrograms/kg/injection, schedule: Q01DX009 (ip), vehicle: Klucel (hydroxypropylcellulose) (HPC)); 104 % of control (dose: 75.0 micrograms/kg/injection, schedule: Q01DX009 (ip), vehicle: Klucel (hydroxypropylcellulose) (HPC)). Also, the T/C (dose: 150.0 micrograms/kg/injection, schedule: Q01DX009 (ip), vehicle: Klucel (hydroxypropylcellulose) (HPC)) is 116 % of control.
